Measurements taken from patent publication US8946436B2, “Oxazolidinone compounds and their uses in preparation of antibiotics” (Sichuan Gooddoctor Pharmaceutical Group Co., Ltd., priority 2011, dated 2015).
Converted amounts (≈) assume the structure as drawn. Where two headings read alike, the source gives them in different places.

Experiments:
[1] = test system: L-02; assay: Cytotoxicity experiment (MTT), L-02; type: cell-based; details: Homo sapiens, L02, 48 h, L-02 normal cells, read-out: Inhibition ratio
Protocol: (§1) (1) Inoculating cells: Experimental cells in the growth of logarithmic phase were collected and suspended. The cell concentration of the suspension was adjusted so that they could be inoculated into the wells of 96-well micro plate at a density between 10^3-10^4 cells per well (200 μl per well). (2) Culturing cells: The cells were cultured at normal conditions for 3 days and then exposed to 50 uM compounds for test. (3) Coloring reaction: At 24 h, 48 h and 72 h after the cells being exposed to the compounds for test, 200 μl culture medium containing 20 μl MTT solution (5 mg/ml) was added into each well, and the well was further incubated at 37° C. for 2 hours to terminate the incubation. After the incubation, the supernatants were removed from the wells. In the event there were suspended cells in the wells, centrifugation should be performed before removal of supernatant from the wells. After the removal, 150 μl DMSO was added to each well and mixed thoroughly by agitation for 10 mins to fully dissolve crystals. (4) Ascertainment of colorimetry: The absorbance value at 490 nm of each well was determined by Enzyme-linked immunosorbent Monitor. The growth curve of the experimental cells was plotted by taking time as x-coordinate and absorbance value as y-coordinate. In addition, an inhibition ratio could be calculated in accordance with the following formula: Inhibition ratio=(absorbance value of control group-absorbance value of administering group)/absorbance value of control group×100%.

[2] = test system: S. agalactiae; assay: In vitro antibacterial activity (MIC), S. agalactiae; type: cell-based; details: Streptococcus agalactiae
Protocol: (§2) The test strain was inoculated into the liquid medium and cultured at 37° C. for 16-18 h. The culture liquid and MH medium were put into two blank wells of a 96-well plate, respectively. Then, the absorptions thereof were measured by a Microplate reader. The difference between the absorption values of the culture liquid and MH medium is the adsorption of the bacteria. The concentration of the culture liquid can be calculated according to the formula of 1OD=50 million CFU/mL. The culture liquid was diluted with the MH bouillon culture medium to 5000 CFU/mL for further use.
(§3) Compounds 12a, 13 and 14 were dissolved in DMSO to 1 mg/mL, and then filtered with a 0.22 μm filter to obtain the compound solutions. And then they were gradually diluted to a desired concentration (10× final concentration) with the liquid medium, so as to obtain a series of dilutions. The final concentration grade of the dilutions of each tested compound consists of 14 concentrations, which includes: 0.03125 μg/mL, […], 0.125 μg/mL, 0.25 μg/mL, […], 1 μg/mL, 2 μg/mL, 4 μg/mL, 8 μg/mL, 16 μg/mL, 32 μg/mL, 64 μg/mL, 128 μg/mL and 256 μg/mL.
(§4) 10 μL of each of the compound dilutions above was added into a well of a 96-well plate. 90 μL of the culture liquid (5000 CFU/mL) was added into each of the wells, respectively, mixed with the dilutions to render the tested compound concentration to the final concentration. The resulted mixture was incubated at 37° C. for 16-18 h, and then the OD630 thereof was measured. A culture liquid free of the tested compounds is used as a blank control, and three parallel tests with the same concentration of each compound were performed. The minimum inhibitory concentration (MIC) of each compound on the standard strain of Staphylococcus Aureus and other test strains was determined. Specifically, among the culture liquid contained in the wells of the micro-plate, the first three lowest concentrations under which growth of the test strains could be observed were chose for further evaluation of the MIC. A culture liquid free of tested compounds was used as a blank control. Each of the culture liquids was homogenized independently, and then was diluted with a sterile saline. Each of the diluted culture liquids was plated onto a MH bouillon plate and incubated at 37° C. for 20 h in incubator. After the incubation, the number of the colonies on each plate was counted. As compared with the blank control group, the lowest concentration of each of the test compound groups, at which 80% reduction in the colony number of the strains was achieved, was recorded as the MIC.

[3] = test system: S. aureus; assay: In vitro antibacterial activity (MIC), S. aureus; type: cell-based, Staphylococcus Aureus; details: Staphylococcus aureus
Protocol: Strains: strain ATCC25923 is available from the American Type Culture Collection, and is used as a standard strain of Staphylococcus Aureus;
Liquid medium: MH bouillon culture medium, a product of BD Company, United States of American;
Tested Compounds: compounds 12a, 13 and 14 prepared according to the methods above, and Linezolid purchased from Pfizer.
as §2, §3, §4

[4] = test system: E. faecalis; assay: In vitro antibacterial activity (MIC), E. faecalis; type: cell-based; details: Enterococcus faecalis
Protocol: as §2, §3, §4

[5] = test system: HEK-293; assay: Cytotoxicity experiment (MTT), HEK-293; type: cell-based; details: Homo sapiens, HEK293, 48 h, HEK-293 normal cells, read-out: Inhibition ratio
Protocol: as §1

[6] = test system: S. pneumoniae; assay: In vitro antibacterial activity (MIC), S. pneumoniae; type: cell-based; details: Streptococcus pneumoniae
Protocol: as §2, §3, §4

[7] = S. agalactiae (5 strains), read-out: MIC
[8] = S. aureus (12 strains), read-out: MIC
[9] = E. faecalis (7 strains), read-out: MIC
[10] = S. pneumoniae (10 strains), read-out: MIC

| SMILES | melting point [°C] | cytotoxicity at 50 µM [1] [%] | MIC [2, 7] [µg/mL] | MIC [3, 8] [µg/mL] | MIC [4, 9] [µg/mL] | cytotoxicity at 50 µM [5] [%] | MIC [6, 10] [µg/mL] | MIC [2] [µg/mL] | MIC [3] [µg/mL] | MIC [4] [µg/mL] | MIC [6] [µg/mL] |
| --- | --- | --- | --- | --- | --- | --- | --- | --- | --- | --- | --- |
| CSc1ccc(-c2ccnn2-c2ccc(N3C[C@H](CNC(C)=O)OC3=O)cc2F)cc1 [Compound 14f, (S)-N-((3-(3-fluoro-4-(5-(4-(methylthio)phenyl)-1H-pyrazol-1-yl)phenyl)-2-oxooxazolidin-5-yl)methyl) acetamide] | 175.4 to 177.6 | 29 | 0.25 to 8 (≈ 0.568 to 18.2 µM) | 1 to 8 (≈ 2.27 to 18.2 µM) | 0.5 to 8 (≈ 1.14 to 18.2 µM) | 40 | 0.5 to 8 (≈ 1.14 to 18.2 µM) | – | – | – | – |
| COc1ccc(-c2cnn(-c3ccc(N4C[C@H](CNC(C)=O)OC4=O)cc3F)c2)cc1 [Compound 13c, (S)-N-((3-(3-fluoro-4-(4-(4-methoxyphenyl)-1H-pyrazol-1-yl)phenyl)-2-oxooxazolidin-5-yl)methyl) acetamide] | 226.1 to 227.8 | 10.4 | 0.5 to 8 (≈ 1.18 to 18.8 µM) | 1 to 8 (≈ 2.36 to 18.8 µM) | 0.25 to 8 (≈ 0.589 to 18.8 µM) | 32 | 0.5 to 8 (≈ 1.18 to 18.8 µM) | – | – | – | – |
| CC(=O)NC[C@H]1CN(c2ccc(-n3nccc3-c3ccc(Br)cc3)c(F)c2)C(=O)O1 [Compound 14d, (S)-N-((3-(3-fluoro-4-(5-(4-bromophenyl)-1H-pyrazol-1-yl)phenyl)-2-oxooxazolidin-5-yl)methyl)acetamide] | 96.8 to 98.8 | 39 | – | – | – | 55 | – | 2 to 16 (≈ 4.23 to 33.8 µM) | 2 to 16 (≈ 4.23 to 33.8 µM) | 2 to 16 (≈ 4.23 to 33.8 µM) | 1 to 8 (≈ 2.11 to 16.9 µM) |
| CC(=O)NC[C@H]1CN(c2ccc(-n3cc(-c4ccc(C)cc4)cn3)c(F)c2)C(=O)O1 [Compound 13b, (S)-N-((3-(3-fluoro-4-(4-(p-tolyl)-1H-pyrazol-1-yl)phenyl)-2-oxooxazolidin-5-yl)methyl)acetamide] | 221.5 to 222.8 | 5.58 | 0.25 to 8 (≈ 0.612 to 19.6 µM) | 1 to 8 (≈ 2.45 to 19.6 µM) | 0.5 to 8 (≈ 1.22 to 19.6 µM) | 12 | 0.5 to 8 (≈ 1.22 to 19.6 µM) | – | – | – | – |
| CC(=O)NC[C@H]1CN(c2ccc(-n3ccc(-c4ccccn4)n3)c(F)c2)C(=O)O1 [Compound 12a, (S)-N-((3-(3-fluoro-4-(3-(pyridin-2-yl)-1H-pyrazol-1-yl)phenyl)-2-oxooxazolidin-5-yl)methyl)acetamide] | – | 20 | 2 to 16 (≈ 5.06 to 40.5 µM) | 2 to 16 (≈ 5.06 to 40.5 µM) | 2 to 16 (≈ 5.06 to 40.5 µM) | 5.5 | 1 to 16 (≈ 2.53 to 40.5 µM) | – | – | – | – |
| CC(=O)NC[C@H]1CN(c2ccc(-n3nccc3-c3ccc(Br)cn3)c(F)c2)C(=O)O1 [Compound 14g, (S)-N-((3-(3-fluoro-4-(5-(5-bromopyridin-2-yl)-1H-pyrazol-1-yl)phenyl)-2-oxooxazolidin-5-yl)methyl) acetamide] | 92.7 to 95.4 | 5.9 | 0.5 to 8 (≈ 1.05 to 16.9 µM) | 1 to 8 (≈ 2.11 to 16.9 µM) | 0.25 to 8 (≈ 0.527 to 16.9 µM) | 10 | 0.5 to 8 (≈ 1.05 to 16.9 µM) | – | – | – | – |
| CC(=O)NC[C@H]1CN(c2ccc(-n3nccc3-c3cccc(Br)n3)c(F)c2)C(=O)O1 [Compound 14b, (S)-N-((3-(3-fluoro-4-(5-(6-bromopyridin-2-yl)-1H-pyrazol-1-yl)phenyl)-2-oxooxazolidin-5-yl)methyl) acetamide] | 90.5 to 92.3 | 21 | 4 to 32 (≈ 8.43 to 67.5 µM) | 4 to 32 (≈ 8.43 to 67.5 µM) | 4 to 32 (≈ 8.43 to 67.5 µM) | 19.5 | 2 to 32 (≈ 4.22 to 67.5 µM) | – | – | – | – |
| CC(=O)NC[C@H]1CN(c2ccc(-n3cc(-c4ccc(Cl)cc4)cn3)c(F)c2)C(=O)O1 [Compound 13d, (S)-N-((3-(3-fluoro-4-(4-(4-chlorophenyl)-1H-pyrazol-1-yl)phenyl)-2-oxooxazolidin-5-yl)methyl)acetamide] | 237.5 to 238.2 | 39.3 | – | – | – | 21 | – | 0.5 to 8 (≈ 1.17 to 18.7 µM) | 1 to 4 (≈ 2.33 to 9.33 µM) | 0.5 to 8 (≈ 1.17 to 18.7 µM) | 0.25 to 4 (≈ 0.583 to 9.33 µM) |
| CC(=O)NC[C@H]1CN(c2ccc(-n3nccc3-c3ccncc3)c(F)c2)C(=O)O1 [Compound 14h, (S)-N-((3-(3-fluoro-4-(5-(pyridin-4-yl)-1H-pyrazol-1-yl)phenyl)-2-oxooxazolidin-5-yl)methyl)acetamide] | 74.5 to 76.3 | 14 | 0.5 to 8 (≈ 1.26 to 20.2 µM) | 1 to 4 (≈ 2.53 to 10.1 µM) | 0.5 to 8 (≈ 1.26 to 20.2 µM) | 5 | 0.25 to 4 (≈ 0.632 to 10.1 µM) | – | – | – | – |
| CC(=O)NC[C@H]1CN(c2ccc(-n3nccc3-c3ccc(C)cc3)c(F)c2)C(=O)O1 [Compound 14c, (S)-N-((3-(3-fluoro-4-(5-(p-tolyl)-1H-pyrazol-1-yl)phenyl)-2-oxooxazolidin-5-yl)methyl)acetamide] | 89.5 to 91.9 | 39 | 2 to 32 (≈ 4.9 to 78.3 µM) | 4 to 32 (≈ 9.79 to 78.3 µM) | 2 to 32 (≈ 4.9 to 78.3 µM) | 40 | 2 to 16 (≈ 4.9 to 39.2 µM) | – | – | – | – |
| CC(=O)NC[C@H]1CN(c2ccc(-n3nccc3-c3cccnc3)c(F)c2)C(=O)O1 [Compound 14a, (S)-N-((3-(3-fluoro-4-(5-(pyridin-3-yl)-1H-pyrazol-1-yl)phenyl)-2-oxooxazolidin-5-yl)methyl)acetamide] | – | 7.51 | 2 to 16 (≈ 5.06 to 40.5 µM) | 2 to 16 (≈ 5.06 to 40.5 µM) | 2 to 16 (≈ 5.06 to 40.5 µM) | 14 | 1 to 16 (≈ 2.53 to 40.5 µM) | – | – | – | – |
| CC(=O)NC[C@H]1CN(c2ccc(-n3cc(-c4ccncc4)cn3)c(F)c2)C(=O)O1 [Compound 13a, (S)-N-((3-(3-fluoro-4-(4-(pyridin-4-yl)-1H-pyrazol-1-yl)phenyl)-2-oxooxazolidin-5-yl)methyl)acetamide] | – | 4 | 0.25 to 16 (≈ 0.632 to 40.5 µM) | 0.5 to 16 (≈ 1.26 to 40.5 µM) | 0.25 to 16 (≈ 0.632 to 40.5 µM) | 11 | 0.125 to 16 (≈ 0.316 to 40.5 µM) | – | – | – | – |
